Data reported in patent US11833148B2, “Methods for treating or limiting development of cardiovascular disease-related neurological disorders” (ARIZONA BOARD OF REGENTS ON BEHALF OF THE UNIVERSITY OF …, priority 2018, dated 2023).
Entries after “also recorded” stand apart in the source; their conditions may differ.

Experiments:
Format in all cases: in vivo
TAC mice [1] = experiment: Blood pressure by tail cuff in trans-aortic constriction (TAC) mice; settings: daily SQ 2 mg/kg/mouse; for diastolic blood pressure / mean arterial pressure (MAP): approximately 5-6 weeks post-surgery, 30 minutes after dosing, compared to saline treated TAC mice
Method: FIG. 1 is a graph showing the effects of treatment on systolic blood pressure. At approximately 5-6 weeks post-surgery, systolic blood pressure was measured 30 minutes after dosing by tail cuff.
FIG. 2 is a graph showing the effects of treatment on diastolic blood pressure. At approximately 5-6 weeks post-surgery, diastolic blood pressure was measured 30 minutes after dosing by tail cuff.
FIG. 3 is a graph showing the effects of treatment on mean arterial pressure (MAP). At approximately 5-6 weeks post-surgery, mean arterial pressure was measured 30 minutes after dosing by tail cuff.
(§1) Treatment was initiated one week after TAC surgery (daily SQ injections at a dose of 2 mg/kg/mouse) when aortic constriction was confirmed. The treatment groups (n=12 per groups) included sham surgery controls treated with saline, TAC surgery controls treated with saline, TAC surgery animals treated with A (1-7), TAC surgery animals treated with Compound 7 and TAC surgery animals treated with Compound 10. Blood pressure was measured approximately 5-6 weeks after surgery by tail cuff and unaffected by Compound 7 or Compound 10. […] Novel object recognition (NOR) is a test of non-spatial memory. […] The preference of the animal for a novel object over a familiar object exploits the natural tendency of rodents to explore novel objects, was tested 10 weeks after surgery.

TAC mice [2] = experiment: Novel object recognition (NOR) test in TAC mice; settings: daily SQ 2 mg/kg/mouse, 10 weeks post-surgery, compared to saline treated TAC mice
Method: FIG. 4 is a graph showing the effects of treatment on novel object recognition (NOR). At 10 weeks post-surgery, the mice underwent NOR test to assess cognitive function.
as §1

[3] = test system: hippocampal cytokine levels (IL-2, IL-10, IL-4, IL-5, IL-6, IL-12p70, IFNγ, KC/GRO, TNFα, IL-10); experiment: Hippocampal cytokine levels in TAC mice by multi-plexed immunoassay (Meso Scale Discovery); settings: daily SQ 2 mg/kg/mouse, compared to saline treated TAC controls, data not shown
Method: as §1

TAC mice [4] = experiment: Observation of adverse events after TAC surgery combined with Mas agonist treatment; settings: daily SQ 2 mg/kg/mouse
Method: as §1

Compound | diastolic blood pressure (TAC mice [1]) | mean arterial pressure (MAP) (TAC mice [1]) | blood pressure (TAC mice [1]; approximately 5-6 weeks after surgery) | novel object recognition (NOR) memory / cognitive function (TAC mice [2]) | hippocampal levels of all cytokines tested (IL-2, IL-10, IL-4, IL-5, IL-6, IL-12p70, IFNγ, KC/GRO, TNFα, IL-10) [3] | observable adverse events (TAC mice [4])
A (1-7): comparator treatment in TAC mice, printed only as A (1-7) (DRVYIHP; Angiotensin 1-7; UniProt P01019 25-31, looked up) [reference compound] | significantly reduced | significantly reduced | – | – | – | –
CCCCOC(=O)NS(=O)(=O)c1ccc(OC(F)(F)F)cc1-c1ccc(Cn2ccnc2)cn1 [Compound 7] | no significant effect | no significant effect | unaffected | restored NOR memory to sham levels; also recorded: significantly increased cognition | decreased | no observable adverse events
